Values after ≈ are worked out from the molar mass of the structure shown.
Legend:
Type in all cases: functional
Escherichia coli = test: Antibacterial activity against Escherichia coli ATCC 35218 after 16 to 18 hr by broth microdilution method
Staphylococcus aureus = test: Antibacterial activity against Staphylococcus aureus ATCC 43300 after 16 to 18 hr by broth microdilution method
Candida tropicalis = test: Antifungal activity against Candida tropicalis after 24 hr by broth microdilution method
Klebsiella oxytoca = test: Antibacterial activity against Klebsiella oxytoca ATCC 13182 after 16 to 18 hr by broth microdilution method
Prescottella equi = test: Antibacterial activity against Rhodococcus equi ATCC 6939 after 16 to 18 hr by broth microdilution method; conditions: Rhodococcus (subgen. Prescottella) equi
Candida albicans [1] = test: Antifungal activity against Candida albicans ATCC 90028 after 24 hr by broth microdilution method; conditions: ATCC 90028, 24 h
Aspergillus fumigatus = test: Antifungal activity against Aspergillus fumigatus after 24 hr by broth microdilution method
Cyberlindnera jadinii = test: Antifungal activity against Cyberlindnera jadinii after 24 hr by broth microdilution method; conditions: Williopsis jadinii
Sporothrix schenckii = test: Antifungal activity against Sporothrix schenckii after 24 hr by broth microdilution method
Rhizomucor = test: Antifungal activity against Rhizomucor spp. after 24 hr by broth microdilution method
Candida parapsilosis [2] = test: Antifungal activity against fluconazole-resistant Candida parapsilosis after 24 hr by broth microdilution method; conditions: Lodderomyces parapsilosis
Candida parapsilosis [3] = test: Antifungal activity against Candida parapsilosis ATCC 22019 after 24 hr by broth microdilution method; conditions: Lodderomyces parapsilosis, ATCC 22019, 24 h
Penicillium sp. = test: Antifungal activity against Penicillium sp. after 24 hr by broth microdilution method
Klebsiella pneumoniae = test: Antibacterial activity against Klebsiella pneumoniae ATCC 700603 after 16 to 18 hr by broth microdilution method
Aspergillus flavus [4] = test: Antifungal activity against Aspergillus flavus MRC 2527 after 24 hr by broth microdilution method; conditions: MRC 2527, 24 h
Pichia kudriavzevii [5] = test: Antifungal activity against Pichia kudriavzevii after 24 hr by broth microdilution method
Fusarium sp. = test: Antifungal activity against Fusarium sp. after 24 hr by broth microdilution method
Scopulariopsis = test: Antifungal activity against Scopulariopsis spp. after 24 hr by broth microdilution method
Bacillus subtilis = test: Antibacterial activity against Bacillus subtilis ATCC 6051 after 16 to 18 hr by broth microdilution method
Pichia kudriavzevii [6] = test: Antifungal activity against fluconazole-resistant Pichia kudriavzevii after 24 hr by broth microdilution method
[7] = tested on: Elizabethkingia meningoseptica; test: Antibacterial activity against Elizabethkingia meningoseptica ATCC 13253 after 16 to 18 hr by broth microdilution method
Aspergillus flavus [8] = test: Antifungal activity against Aspergillus flavus after 24 hr by broth microdilution method
Trichosporon asahii = test: Antifungal activity against Trichosporon asahii after 24 hr by broth microdilution method
Staphylococcus xylosus = test: Antibacterial activity against Staphylococcus xylosus ATCC 35033 after 16 to 18 hr by broth microdilution method
Candida albicans [9] = test: Antifungal activity against fluconazole-resistant Candida albicans
Candida albicans [10] = test: Antifungal activity against fluconazole-susceptible Candida albicans

| Structure (SMILES) | MIC (Escherichia coli) | MIC (Staphylococcus aureus) | MIC (Candida tropicalis) | MIC (Klebsiella oxytoca) | MIC (Prescottella equi) | MIC (Candida albicans [1]) | MIC (Aspergillus fumigatus) | MIC (Cyberlindnera jadinii) | MIC (Sporothrix schenckii) | MIC (Rhizomucor) | MIC (Candida parapsilosis [2]) | MIC (Candida parapsilosis [3]) | MIC (Penicillium sp.) | MIC (Klebsiella pneumoniae) | MIC (Fusarium sp.) | MIC (Scopulariopsis) | MIC (Bacillus subtilis) | MIC [7] | MIC (Trichosporon asahii) | MIC (Staphylococcus xylosus) | further results |
| --- | --- | --- | --- | --- | --- | --- | --- | --- | --- | --- | --- | --- | --- | --- | --- | --- | --- | --- | --- | --- | --- |
| CC(C)=CCC/C(C)=C/CNCCNC12CC3CC(CC(C3)C1)C2.Cl | 500 µg/mL | 500 µg/mL | 62.5 µg/mL | 500 µg/mL | 125 µg/mL | 31.2 µg/mL | 125 µg/mL | 31.2 µg/mL | 3.9 µg/mL | 125 µg/mL | 125 µg/mL | 250 µg/mL | 62.5 µg/mL | 1000 µg/mL | 250 µg/mL | 125 µg/mL | 125 µg/mL | 500 µg/mL | 125 µg/mL | 250 µg/mL | MIC (Aspergillus flavus [4]): > 100 µg/mL; MIC (Pichia kudriavzevii [5]): 125 µg/mL; MIC (Pichia kudriavzevii [6]): 15.6 µg/mL; MIC (Aspergillus flavus [8]): > 500 µg/mL |
| CC(C)=CCC/C(C)=C/CC/C(C)=C/CNCCNC1C2CC3CC(C2)CC1C3.Cl (stereo not drawn) | 7.8 µg/mL | 15.6 µg/mL | 3.9 µg/mL | 15.6 µg/mL | 7.8 µg/mL | 7.8 µg/mL | 7.8 µg/mL | 1.95 µg/mL | 0.98 µg/mL | 7.8 µg/mL | 3.9 µg/mL | 7.8 µg/mL | 3.9 µg/mL | 125 µg/mL | 7.8 µg/mL | 3.9 µg/mL | 7.8 µg/mL | 15.6 µg/mL | 3.9 µg/mL | 7.8 µg/mL | MIC (Aspergillus flavus [4]): 25 µg/mL; MIC (Pichia kudriavzevii [5]): 3.9 µg/mL; MIC (Pichia kudriavzevii [6]): 1.95 µg/mL; MIC (Aspergillus flavus [8]): 15.6 µg/mL |
| CC(C)CCCC(C)CCCC(C)CCNCCNC1C2CC3CC(C2)CC1C3.Cl (stereo not drawn) | 7.8 µg/mL | 7.8 µg/mL | 6.25 µg/mL | 31.2 µg/mL | 3.9 µg/mL | 6.25 µg/mL | 12.5 µg/mL | 3.13 µg/mL | 1.56 µg/mL | 12.5 µg/mL | 6.25 µg/mL | 6.25 µg/mL | 6.25 µg/mL | 250 µg/mL | 12.5 µg/mL | 3.13 µg/mL | 3.9 µg/mL | 7.8 µg/mL | 6.25 µg/mL | 3.9 µg/mL | MIC (Aspergillus flavus [4]): > 100 µg/mL; MIC (Pichia kudriavzevii [5]): 6.25 µg/mL; MIC (Pichia kudriavzevii [6]): 3.13 µg/mL; MIC (Aspergillus flavus [8]): 25 µg/mL |
| C[C@@H]1[C@H](O)[C@@H](C)/C=C/C=C/C=C/C=C/C=C/C=C/C=C/[C@H](O[C@@H]2O[C@H](C)[C@@H](O)[C@H](N)[C@@H]2O)C[C@@H]2O[C@](O)(C[C@@H](O)C[C@@H](O)[C@H](O)CC[C@@H](O)C[C@@H](O)CC(=O)O[C@H]1C)C[C@H](O)[C@H]2C(=O)O [AMPHOTERICIN B] | – | – | – | – | – | 0.62 µg/mL (≈ 0.671 µM) | – | 0.31 µg/mL (≈ 0.335 µM) | 5 µg/mL (≈ 5.41 µM) | 0.31 µg/mL (≈ 0.335 µM) | 0.02 µg/mL (≈ 0.0216 µM) | 0.04 µg/mL (≈ 0.0433 µM) | – | – | 2.5 µg/mL (≈ 2.71 µM) | 10 µg/mL (≈ 10.8 µM) | – | – | 0.31 µg/mL (≈ 0.335 µM) | – | – |
| NC[C@@H]1O[C@H](O[C@H]2[C@@H](O)[C@H](O[C@@H]3[C@@H](O)[C@H](N)C[C@H](N)[C@H]3O[C@H]3O[C@H](CN)[C@@H](O)[C@H](O)[C@H]3N)O[C@@H]2CO)[C@H](N)[C@@H](O)[C@@H]1O [FRAMYCETIN] | 3.13 µg/mL (≈ 5.09 µM) | 25 µg/mL (≈ 40.7 µM) | – | 6.25 µg/mL (≈ 10.2 µM) | 1.56 µg/mL (≈ 2.54 µM) | – | – | – | – | – | – | – | – | 6.25 µg/mL (≈ 10.2 µM) | – | – | 0.78 µg/mL (≈ 1.27 µM) | 12.5 µg/mL (≈ 20.3 µM) | – | 0.2 µg/mL (≈ 0.325 µM) | – |
| CC(C)CCCC(C)CCNCCNC1C2CC3CC(C2)CC1C3.Cl (stereo not drawn) | 31.2 µg/mL | 31.2 µg/mL | 7.8 µg/mL | 62.5 µg/mL | 7.8 µg/mL | 3.9 µg/mL | 7.8 µg/mL | 1.95 µg/mL | 0.49 µg/mL | 7.8 µg/mL | 7.8 µg/mL | 7.8 µg/mL | 3.9 µg/mL | 125 µg/mL | 7.8 µg/mL | 1.95 µg/mL | 15.6 µg/mL | 31.2 µg/mL | 7.8 µg/mL | 15.6 µg/mL | MIC (Aspergillus flavus [4]): 25 µg/mL; MIC (Pichia kudriavzevii [5]): 7.8 µg/mL; MIC (Pichia kudriavzevii [6]): 0.98 µg/mL; MIC (Aspergillus flavus [8]): 31.2 µg/mL |
| CC(C)CCCC(C)CCNCCNC12CC3CC(CC(C3)C1)C2.Cl (stereo not drawn) | 31.2 µg/mL | 62.5 µg/mL | 3.9 µg/mL | 62.5 µg/mL | 15.6 µg/mL | 3.9 µg/mL | 15.6 µg/mL | 1.95 µg/mL | 0.49 µg/mL | 7.8 µg/mL | 7.8 µg/mL | 15.6 µg/mL | 7.8 µg/mL | 62.5 µg/mL | 7.8 µg/mL | 1.95 µg/mL | 15.6 µg/mL | 31.2 µg/mL | 7.8 µg/mL | 15.6 µg/mL | MIC (Aspergillus flavus [4]): 25 µg/mL; MIC (Pichia kudriavzevii [5]): 15.6 µg/mL; MIC (Pichia kudriavzevii [6]): 0.98 µg/mL; MIC (Aspergillus flavus [8]): 31.2 µg/mL |
| CC(C)=CCC/C(C)=C/CNCCNC1C2CC3CC(C2)CC1C3.Cl (stereo not drawn) | 500 µg/mL | 1000 µg/mL | 32.5 µg/mL | 500 µg/mL | 125 µg/mL | 125 µg/mL | 250 µg/mL | 15.6 µg/mL | 1.95 µg/mL | 125 µg/mL | 250 µg/mL | 250 µg/mL | 125 µg/mL | 1000 µg/mL | 125 µg/mL | 62.5 µg/mL | 500 µg/mL | 500 µg/mL | 125 µg/mL | 500 µg/mL | MIC (Candida albicans [9]): 4 µg/mL; MIC (Aspergillus flavus [4]): > 100 µg/mL; MIC (Pichia kudriavzevii [5]): 250 µg/mL; MIC (Pichia kudriavzevii [6]): 15.6 µg/mL; MIC (Aspergillus flavus [8]): 500 µg/mL; MIC (Candida albicans [10]): 4 µg/mL |
